Data as given in patent publication US11629171B2, “Beta-hairpin peptidomimetics” (POLYPHOR AG, priority 2017, dated 2023).
In brackets after ≈: the same amount, converted by molar mass. Where a SMILES comes first, the peptide text is derived from it. Bridges are numbered along the chain shown (N, C = ends). Roman numbers before positions name the chains, in order. [ ]: non-standard residue; d: D form. The star is where a group is joined. Tle = CC(C)(C)[C@H](N)C(=O)O; Hiv = CC(C)[C@H](O)C(=O)O; dDab = NCC[C@@H](N)C(=O)O; hSer = N[C@@H](CCO)C(=O)O; Orn = NCCC[C@H](N)C(=O)O; Dab = NCC[C@H](N)C(=O)O; Dap = NC[C@H](N)C(=O)O; NHCH2CH2OH = OCCN*

Assays:
Type in all cases: cell-based
[1] = test system: human red blood cells (hRBC); test: Hemolysis; settings: red cells of human, 1 h, 200
How it was run: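 Washed fresh hRBC (20% v/v) were incubated with peptides at 200 μg/mL for 1 h at 37° C with shaking at 300 rpm. Supernatant OD540 was read after centrifugation and dilution, blank-corrected, and expressed as percent of the 2% Triton X-100 (100% lysis) control; PBS with 10% water gave 0%.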

[2] = test system: Klebsiella pneumoniae 968733; settings: 968733
How it was run: (§1)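 Broth microdilution per CLSI; MH-II (cation-adjusted) + 0.002% P-80 final; ~10^6 CFU/mL inoculum; 2-fold peptide series; 35° C, 18-20 h; MIC = no visible growth, μg/mL.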

[3] = test system: Acinetobacter baumannii 872842; settings: 872842
How it was run: as §1

Escherichia coli 926415 = settings: 926415
How it was run: as §1

[4] = test system: Enterobacter cloacae 848840; settings: 848840
How it was run: as §1

[5] = test system: Pseudomonas aeruginosa ATCC 27853; settings: ATCC 27853
How it was run: as §1

[6] = test system: Escherichia coli ATCC 25922; settings: ATCC 25922
How it was run: as §1

[7] = test system: Acinetobacter baumannii DSM 30008; settings: DSM 30008
How it was run: as §1

[8] = test system: Klebsiella pneumoniae SSI #3010; settings: SSI #3010
How it was run: as §1

Compound	MIC [2]	MIC [3]	MIC (Escherichia coli 926415)	MIC [4]	MIC [5]	MIC [6]	MIC [7]	MIC [8]	Pseudomonas aeruginosa ATCC 27853 MIC [5]	Escherichia coli ATCC 25922 MIC [6]	Acinetobacter baumannii DSM 30008 MIC [7]	Klebsiella pneumoniae SSI #3010 MIC [8]	Hemolysis at 200 μg/mL [1]
CC[C@H](C)[C@@H]1NC(=O)[C@H](CO)NC(=O)[C@H](Cc2c[nH]c3ccccc23)NC(=O)[C@H](CO)NC(=O)[C@@H](CCN)NC(=O)[C@H](CCC(=O)N[C@@H](CCN)C(=O)N[C@H](C(=O)N[C@@H](CN)C(=O)N[C@H]2CCNC(=O)[C@H]([C@@H](C)O)NC(=O)[C@H](CCN)NC(=O)[C@H](CCN)NC(=O)[C@H](CC(C)C)NC(=O)[C@@H](CC(C)C)NC(=O)[C@H](CCN)NC2=O)[C@@H](C)O)NC(=O)[C@H](CN)NC(=O)[C@H](Cc2ccc(O)cc2)NC(=O)[C@@H](NC(=O)[C@@H](NC(C)=O)C(C)C)CCNC(=O)CC[C@@H](C(=O)N[C@@H](CO)C(N)=O)NC1=O [Ex. 322] (I: Ac-V[Dab]Y[Dap]E[dDab]SWSIES-NH2 / II: [Dab]T[Dap][Dab][Dab][dL]L[Dab][Dab]T; lactam I:2-I:11, II:4-II:C; amide I:5-II:N)	0.25 µg/mL (≈ 0.104 µM)	0.0625 µg/mL (≈ 0.026 µM)	0.125 µg/mL (≈ 0.052 µM)	0.0625 µg/mL (≈ 0.026 µM)	–	–	–	–	0.125 µg/mL	0.0625 µg/mL	0.0625 µg/mL	0.125 µg/mL	<1%
CC(=O)N[C@@H](CCN)C(=O)N[C@H](C(=O)N[C@H](C(=O)N[C@@H](Cc1ccc(O)cc1)C(=O)N[C@H]1CSSC[C@@H](C(=O)N[C@H](C(=O)N[C@@H](C)C(=O)N[C@H](C(N)=O)C(C)C)C(C)(C)C)NC(=O)[C@H](Cc2c[nH]c3ccccc23)NC(=O)[C@H](CO)NC(=O)[C@@H](CCN)NC(=O)[C@H](CCC(=O)N[C@@H](CCN)C(=O)N[C@H](C(=O)N[C@@H](CN)C(=O)N[C@H]2CCNC(=O)[C@H]([C@@H](C)O)NC(=O)[C@H](CCN)NC(=O)[C@H](CCN)NC(=O)[C@H](CC(C)C)NC(=O)[C@@H](CC(C)C)NC(=O)[C@H](CCN)NC2=O)[C@@H](C)O)NC1=O)[C@@H](C)O)C(C)C [Ex. 238] (I: Ac-[Dab]VTYCE[dDab]SWC[Tle]AV-NH2 / II: [Dab]T[Dap][Dab][Dab][dL]L[Dab][Dab]T; disulfide I:5-I:10; amide I:6-II:N; lactam II:4-II:C)	0.25 µg/mL (≈ 0.0996 µM)	0.0625 µg/mL (≈ 0.0249 µM)	0.125 µg/mL (≈ 0.0498 µM)	0.125 µg/mL (≈ 0.0498 µM)	0.125 µg/mL (≈ 0.0498 µM)	0.0625 µg/mL (≈ 0.0249 µM)	0.03125 µg/mL (≈ 0.0125 µM)	0.125 µg/mL (≈ 0.0498 µM)	–	–	–	–	2%
CC(=O)N[C@H](C(=O)N[C@H]1CCCNC(=O)[C@@H](CCC(N)=O)NC(=O)[C@H](C(C)(C)C)NC(=O)[C@H](CO)NC(=O)[C@H](Cc2c[nH]c3ccccc23)NC(=O)[C@H](CCO)NC(=O)[C@@H](CCN)NC(=O)[C@H](CCC(=O)N[C@@H](CCN)C(=O)N[C@H](C(=O)N[C@@H](CN)C(=O)N[C@H]2CCNC(=O)[C@H]([C@@H](C)O)NC(=O)[C@H](CCN)NC(=O)[C@H](CCN)NC(=O)[C@H](CC(C)C)NC(=O)[C@@H](CC(C)C)NC(=O)[C@H](CCN)NC2=O)[C@@H](C)O)NC(=O)[C@H](CO)NC(=O)[C@H](Cc2ccc(O)cc2)NC1=O)C(C)C [Ex. 20] (I: Ac-V[Orn]YSE[dDab][hSer]WS[Tle][dQ] / II: [Dab]T[Dap][Dab][Dab][dL]L[Dab][Dab]T; lactam I:2-I:C, II:4-II:C; amide I:5-II:N)	2 µg/mL (≈ 0.852 µM)	0.5 µg/mL (≈ 0.213 µM)	1 µg/mL (≈ 0.426 µM)	0.25 µg/mL (≈ 0.106 µM)	0.25 µg/mL (≈ 0.106 µM)	0.125 µg/mL (≈ 0.0532 µM)	0.125 µg/mL (≈ 0.0532 µM)	0.125 µg/mL (≈ 0.0532 µM)	–	–	–	–	<1%

Now from value to compound, other results behind:

MIC [2]	MIC [3]	MIC (Escherichia coli 926415)	MIC [4]	MIC [5]	MIC [6]	MIC [7]	MIC [8]	Pseudomonas aeruginosa ATCC 27853 MIC [5]	Escherichia coli ATCC 25922 MIC [6]	Acinetobacter baumannii DSM 30008 MIC [7]	Klebsiella pneumoniae SSI #3010 MIC [8]	Compound	Hemolysis at 200 μg/mL [1]
0.25 µg/mL (≈ 0.102 µM)	0.0625 µg/mL (≈ 0.0255 µM)	0.125 µg/mL (≈ 0.0509 µM)	0.125 µg/mL (≈ 0.0509 µM)	0.125 µg/mL (≈ 0.0509 µM)	0.03125 µg/mL (≈ 0.0127 µM)	0.01562 µg/mL (≈ 0.00636 µM)	0.0625 µg/mL (≈ 0.0255 µM)	–	–	–	–	CC(=O)N[C@H](C(=O)N[C@H]1CSSC[C@@H](C(=O)N[C@@H](CO)C(N)=O)NC(=O)[C@H](C(C)(C)C)NC(=O)[C@H](CCC(=O)O)NC(=O)[C@H](Cc2c[nH]c3ccccc23)NC(=O)[C@H](CO)NC(=O)[C@@H](CCN)NC(=O)[C@H](CCC(=O)N[C@@H](CCN)C(=O)N[C@H](C(=O)N[C@@H](CN)C(=O)N[C@H]2CCNC(=O)[C@H]([C@@H](C)O)NC(=O)[C@H](CCN)NC(=O)[C@H](CCN)NC(=O)[C@H](CC(C)C)NC(=O)[C@@H](CC(C)C)NC(=O)[C@H](CCN)NC2=O)[C@@H](C)O)NC(=O)[C@H](CCN)NC(=O)[C@H](Cc2ccc(O)cc2)NC1=O)C(C)C [Ex. 154] (I: Ac-VCY[Dab]E[dDab]SWE[Tle]CS-NH2 / II: [Dab]T[Dap][Dab][Dab][dL]L[Dab][Dab]T; disulfide I:2-I:11; amide I:5-II:N; lactam II:4-II:C)	<1%
4 µg/mL (≈ 1.64 µM)	4 µg/mL (≈ 1.64 µM)	0.25 µg/mL (≈ 0.103 µM)	8 µg/mL (≈ 3.28 µM)	–	–	–	–	0.25 µg/mL	0.125 µg/mL	1 µg/mL	0.125 µg/mL	CC(=O)N[C@@H](CC(C)C)C(=O)N[C@H]1CSSC[C@@H](C(=O)N[C@@H](CO)C(N)=O)NC(=O)[C@H](C(C)C)NC(=O)[C@H](CCN)NC(=O)[C@H](Cc2c[nH]c3ccccc23)NC(=O)[C@H](CCN)NC(=O)[C@@H](CCN)NC(=O)[C@H](CCC(=O)N[C@@H](CCN)C(=O)N[C@H](C(=O)N[C@@H](CN)C(=O)N[C@H]2CCNC(=O)[C@H]([C@@H](C)O)NC(=O)[C@H](CCN)NC(=O)[C@H](CCN)NC(=O)[C@H](CC(C)C)NC(=O)[C@@H](CC(C)C)NC(=O)[C@H](CCN)NC2=O)[C@@H](C)O)NC(=O)[C@H](CCN)NC(=O)[C@H](Cc2ccc(O)cc2)NC1=O [Ex. 353] (I: Ac-LCY[Dab]E[dDab][Dab]W[Dab]VCS-NH2 / II: [Dab]T[Dap][Dab][Dab][dL]L[Dab][Dab]T; disulfide I:2-I:11; amide I:5-II:N; lactam II:4-II:C)	<1%
0.125 µg/mL (≈ 0.053 µM)	0.0625 µg/mL (≈ 0.0265 µM)	0.125 µg/mL (≈ 0.053 µM)	0.25 µg/mL (≈ 0.106 µM)	0.125 µg/mL (≈ 0.053 µM)	0.0625 µg/mL (≈ 0.0265 µM)	0.0625 µg/mL (≈ 0.0265 µM)	0.125 µg/mL (≈ 0.053 µM)	–	–	–	–	CC(C)C[C@@H]1NC(=O)[C@@H](CC(C)C)NC(=O)[C@H](CCN)NC(=O)[C@@H](NC(=O)[C@H](CCN)NC(=O)[C@@H](NC(=O)[C@H](CCN)NC(=O)CC[C@@H]2NC(=O)[C@H](CCN)NC(=O)[C@H](Cc3ccc(O)cc3)NC(=O)[C@@H](NC(=O)[C@@H](O)C(C)C)CSSC[C@@H](C(=O)NCCO)NC(=O)[C@H](C(C)(C)C)NC(=O)[C@H](CO)NC(=O)[C@H](Cc3c[nH]c4ccccc34)NC(=O)[C@H](CCO)NC(=O)[C@@H](CCN)NC2=O)[C@@H](C)O)CCNC(=O)[C@H]([C@@H](C)O)NC(=O)[C@H](CCN)NC(=O)[C@H](CCN)NC1=O [Ex. 72] (I: H-[Hiv]CY[Dab]E[dDab][hSer]WS[Tle]C-NHCH2CH2OH / II: [Dab]T[Dab][Dab][Dab][dL]L[Dab][Dab]T; disulfide I:2-I:11; amide I:5-II:N; lactam II:4-II:C)	<1%
0.25 µg/mL (≈ 0.103 µM)	0.0625 µg/mL (≈ 0.0257 µM)	0.125 µg/mL (≈ 0.0513 µM)	0.0625 µg/mL (≈ 0.0257 µM)	–	–	–	–	0.0625 µg/mL	0.01562 µg/mL	0.01562 µg/mL	0.125 µg/mL	CC(=O)N[C@H](C(=O)N[C@H]1CSSC[C@@H](C(=O)N[C@@H](CO)C(N)=O)NC(=O)[C@H](C(C)C)NC(=O)[C@H](CO)NC(=O)[C@H](Cc2c[nH]c3ccccc23)NC(=O)[C@H](CO)NC(=O)[C@@H](CCN)NC(=O)[C@H](CCC(=O)N[C@@H](CCN)C(=O)N[C@H](C(=O)N[C@@H](CN)C(=O)N[C@H]2CCNC(=O)[C@H]([C@@H](C)O)NC(=O)[C@H](CCN)NC(=O)[C@H](CCN)NC(=O)[C@H](CC(C)C)NC(=O)[C@@H](CC(C)C)NC(=O)[C@H](CCN)NC2=O)[C@@H](C)O)NC(=O)[C@H](Cc2c[nH]cn2)NC(=O)[C@H](Cc2ccc(O)cc2)NC1=O)C(C)C [Ex. 328] (I: Ac-VCYHE[dDab]SWSVCS-NH2 / II: [Dab]T[Dap][Dab][Dab][dL]L[Dab][Dab]T; disulfide I:2-I:11; amide I:5-II:N; lactam II:4-II:C)	1%
